Measurements from patent US6911474B2, “Methods, compounds, and compositions for reducing body fat and modulating fatty acid metabolism” (The Regents of the University of California, priority 2001, dated 2005).
Ends that are not written are not given here.

Columns and labels:
[1] = Conditioned taste aversion; assay type: in vivo, rat; conditions: OEA 20 mg per kg, i.p.; lithium chloride 0.4 M, 7.5 ml per kg; FIG. 4c
Description: Conditioned taste aversion. Rats were water-deprived for 24 h and then accustomed to drink from a graded bottle during a 30-min test period for four days. On day five, water was substituted with a 0.1% saccharin solution and, 30 min later, the animals received injections of vehicle, OEA (20 mg per kg) or lithium chloride (0.4 M, 7.5 ml per kg). During the following two days, water consumption was recorded over 30-min test periods. The animals were then presented with water or saccharin, and drinking measured.

[2] = Food intake in capsaicin-treated rats (sensory fibers destroyed); assay type: in vivo, rat; conditions: OEA 10 mg per kg, i.p., FIG. 6a,c
Excerpt: Chemicals. FAEs and [^2H4] FAEs were synthesized in the laboratory (Giuffrida et al., “Lipid Second Messengers” (ed. Laychock, S. G. & Rubin, R. P.) 113-133 (CRC Press LLC, Boca Raton, Fla., 1998)); 1,2-dioleyl-sn-glycero-phosphoethanolamine-N-oleyl was purchased from Avanti Polar Lipids (Alabaster, Ala.); SR141716A was provided by RBI (Natick, Mass.) as part of the Chemical Synthesis Program of the NIMH (N01MH30003); SR144528 was a generous gift of Sanofi Recherche; all other drugs were from Tocris (Ballwin, Mo.) or Sigma (Saint Louis, Mo.). FAE were dissolved in dimethylsulphoxide (DMSO) and administered in 70% DMSO in sterile saline (acute treatments) or 5% Tween 80/5% propylenglycol in sterile saline (subchronic treatments) (1 ml per kg, i.p.). Capsaicin was administered in 10% Tween 80/10% ethanol/80% saline; SR141716A, SR144528, CCK-8 and CP-93129 in 5% Tween 80/5% propylenglycol/90% saline (1 ml per kg, i.p.).
These findings support the hypothesis that OEA causes hypophagia by acting at a peripheral site, and that sensory fibers are required for this effect.

[3] = Acute food intake in 24-h food-deprived rats after i.p. administration; assay type: in vivo, rat; conditions: 24-h food-deprived rats, 15 min before food presentation, FIG. 4a,b
Description: Feeding experiments. Acute experiments. Food intake was measured in 24-h food-deprived rats (Navarro et al., J. Neurochem., 67:1982-1991 (1996)), administering drugs 15 min before food presentation. Subchronic experiments. Ad libitum fed rats received vehicle injections for three days. On day four, the animals were divided in two equal groups and gave them daily injections of vehicle or OEA (5 mg per kg at 1900 h) for 7 consecutive days, while measuring body weight, food intake and water intake.
The effects of systemically administered OEA on food intake in rats can be assessed using a 24 h fast. […] To define the selectivity of this response, various OEA analogs were evaluated for their ability to produce hypophagia.

Soleus muscle = assay: [14C]oleate oxidation to CO2 in soleus muscle; assay type: cell-based, rat; conditions: soleus muscle, structure-activity relationship; FIG. 8

| Compound | conditioned taste aversion [1] | food intake response of capsaicin-treated rats [2] | suppression of food intake (hypophagia) [3] | mimicking of the effect of OEA on skeletal muscle fatty acid oxidation (Soleus muscle) |
| --- | --- | --- | --- | --- |
| [Cl-].[Li+] [lithium chloride] | readily provoked |  |  |  |
| O=c1ccc2[nH]cc(C3=CCNCC3)c2[nH]1 [CP-93129] |  | responded normally |  |  |
| CCCCCCCC/C=C\CCCCCCCC(=O)O [oleic acid, reference compound] |  |  | no effect | not |
| cholecystokinin-8 (DYMGWMDF; ends and bridges not checked; UniProt P06307 96-103, looked up) [CCK-8, peripherally administered cholecystokinin-8] |  | failed to respond |  |  |
| CCCCCCCCCCCCCCCC(=O)NCCO [Palmitylethanolamide, palmitylethanolamide] |  |  | active but significantly less potent than OEA | only partially |
| CCCCC/C=C\C/C=C\C/C=C\C/C=C\CCCC(=O)NCCO [Anandamide, arachidonylethanolamide, reference compound] |  |  | no effect | not |
